Values of other authors as cited in article PMC4153342 (Vaccine, 2014).

System: HLA-A2 on TAP-deficient/HLA-A2+ T2 cells
Settings: previously reported

Sequence | affinity for HLA-A2 in vitro
KASEKIFYV [p41] | have affinity for HLA-A2
RLQGISPKI [p103] | have affinity for HLA-A2
AMTKLGFKA [p57] | have affinity for HLA-A2
MTFGRLQGI [p99] | have affinity for HLA-A2
